Experimental data: patent publication US20220144938A1, “IDENTIFICATION AND TARGETING OF TUMOR PROMOTING CARCINOMA ASSOCIATED FIBROBLASTS FOR DIAGNOSIS AND TREATMENT OF CANCER AND OTHER DISEASES” (Board of Regents, The University of Texas System, priority 2018, published 2022)
Entries after “also recorded” stand apart in the source; their conditions may differ.

Columns and labels:
[1] = tested on: phospho-Stat3, phospho-ERK1/2, phospho-Akt; test: Immunohistochemistry for phospho-Stat3, phospho-ERK1/2 and phospho-Akt in tumors; type: in vivo, mice
Procedure: (§1) Formalin-fixed, paraffin-embedded (FFPE) sections were processed for immunohistochemical (IHC) staining as previously described (Zheng et al., 2015), after Citrate based antigen retrieval (pH=6). For FAP staining in mouse FFPE sections citrate-based antigen retrieval was performed at pH 7.4. Staining for αSMA was performed with M.O.M. kit (Vector Laboratories) following the manufacturer's instructions. For all other staining, sections were incubated with biotinylated goat anti-rabbit and streptavidin HRP (Biocare Medical), each for 10 min. For all staining, counterstaining with hematoxylin was performed and DAB positivity was examined in ten visual fields at 200× magnification. […] The images were quantified for positive area using NIH ImageJ analysis software (αSMA, CD31, CK19, cleaved caspase-3, Ki67, MTS, phospho-Akt, phospho-ERK1/2, phospho-Stat3). For αSMA and FAP double immunofluorescence in human FFPE sections, secondary anti-sheep Alexa Fluor 488 and anti-mouse Alexa Fluor 534 antibodies were incubated for 30 min at RT. For αSMA and FAP IHC on FAP-TK and control tumor sections, immunoreactive score (IRS) were obtained from the sum of distribution and intensity scores for each section, established on a scale of 1 to 4 (Meyerholz & Beck, 2018).

[2] = tested on: PDAC tumors (KPPF GEM); test: Histopathological scoring and tumor burden of pancreas tumors; type: in vivo; settings: gemcitabine in KPPF;IL-6smaKO vs KPPF mice
Excerpt: Mice. FSF-Kras^G12D/+ (Schonhuber et al., 2014), Pdx1-Flp (Schonhuber et al., 2014), Trp53^frt/+ (Lee et al., 2012), LSL-Kras^G12D/+ (Hingorani et al., 2005), Pdx1-Cre (Hingorani et al., 2005), αSMA-Cre (LeBleu et al., 2013), αSMA-RFP (LeBleu et al., 2013), Rosa26-loxP-Stop-loxP-YFP (Ozdemir et al., 2014), Tgfbr2^loxP/loxP (Ijichi et al., 2006), and IL-6^loxP/loxP (Quintana et al., 2013) mouse strains were previously documented. The Rosa26-CAG-loxP-frt-Stop-frt-FireflyLuc-EGFP-loxP-RenillaLuc-tdTomato (referred to as R26^Dual), FSF-Kras^G12D/+, Pdx1-Flp, and Trp53^frt/+ strains were kindly provided by D. Saur, and the R26R-Brainbow2.1/Confetti (referred to as R26^Confetti) strain was purchased from Jackson Laboratory (Stock 013731). The IL-6^−/− strain was generated by crossing the IL-6^loxP/loxP strain with CMV-Cre strain (Jackson Laboratory; Stock 006054). […] Mice were maintained on a mixed genetic background and both male and female mice were evaluated. […] Some of the tissues analyzed from the PKT;αSMA-TK GEM were from mice that were previously published (Ozdemir et al., 2014). […]
Histopathological Scoring. […] Tumor scores for orthotopic tumors were attributed on a scale from 1 (minor involvement) to 4 (extensive involvement), which evaluated on H&E sections of the entire pancreas the relative tumor involvement. […]

[3] = tested on: IL-6 and Acta2 (αSMA) transcripts; test: qPCR and immunolabeling of IL-6 and αSMA in tumors; type: in vivo; settings: tumors of KPPF mice following gemcitabine treatment
Procedure: as §1, with “For αSMA and FAP IHC on FAP-TK and control tumor sections, immunoreactive score (IRS) were obtained from the sum of distribution and intensity scores for each section, established on a scale of 1 to 4 (Meyerholz & Beck, 2018).” left out
Gene expression analyses and global gene expression profiling. […] The expression level of detected genes was normalized to that of Gapdh housekeeping gene. […] Primer sequences for detected genes are listed below. […]

[4] = tested on: PDAC tumors lacking p53 (KPPF); test: Survival of PDAC genetically engineered mice under treatment (Kaplan-Meier, log rank); type: in vivo
Excerpt: Mice. FSF-Kras^G12D/+ (Schonhuber et al., 2014), Pdx1-Flp (Schonhuber et al., 2014), Trp53^frt/+ (Lee et al., 2012), LSL-Kras^G12D/+ (Hingorani et al., 2005), Pdx1-Cre (Hingorani et al., 2005), αSMA-Cre (LeBleu et al., 2013), αSMA-RFP (LeBleu et al., 2013), Rosa26-loxP-Stop-loxP-YFP (Ozdemir et al., 2014), Tgfbr2^loxP/loxP (Ijichi et al., 2006), and IL-6^loxP/loxP (Quintana et al., 2013) mouse strains were previously documented. The Rosa26-CAG-loxP-frt-Stop-frt-FireflyLuc-EGFP-loxP-RenillaLuc-tdTomato (referred to as R26^Dual), FSF-Kras^G12D/+, Pdx1-Flp, and Trp53^frt/+ strains were kindly provided by D. Saur, and the R26R-Brainbow2.1/Confetti (referred to as R26^Confetti) strain was purchased from Jackson Laboratory (Stock 013731). The IL-6^−/− strain was generated by crossing the IL-6^loxP/loxP strain with CMV-Cre strain (Jackson Laboratory; Stock 006054). The FAP-TK transgenic strain was newly generated: a 5 kb sequence flanking the FAP promoter and partial Exon 1 (Ex1) was cloned into pORF-HSV1-TK vector (Invivogen) using NotI and AgeI. The sequence-confirmed FAP-TK construct was released from the vector using NotI and SwaI before purification and injection into fertilized eggs. The transgenic mice were generated on the C57Bl/6 genetic background. These mice were bred onto PDAC GEM or implanted orthotopically with 689KPC cancer cells, as previously described (Kamerkar et al., 2017). Mice were maintained on a mixed genetic background and both male and female mice were evaluated. Mice were given gemcitabine (G-4177, LC Laboratories) intraperitoneally (i.p.) twice per week at 40 mg/kg of body weight. Gemcitabine treatment was initiated at 35 days of age. Ganciclovir (GCV; sud-gcv, Invivogen) was administered i.p. daily at 50 mg/kg of body weight ([…]). GCV was administered to PKT mice at 28 to 30 days of age, and to PKP mice at 50-51 days of age. Some of the tissues analyzed from the PKT;αSMA-TK GEM were from mice that were previously published (Ozdemir et al., 2014). […]

[5] = tested on: PDAC tumors (KPPF GEM); test: Immunohistochemistry/staining of pancreas sections for CD31, Ki67, cleaved caspase 3 and MTS; type: in vivo, mice
Procedure: as §1
Histopathological Scoring. Mouse tissues were fixed in 10% neutral buffered formalin, embedded in paraffin, and sectioned at 5 μm thickness. Sections were processed for haematoxylin and eosin (H&E) staining and/or Masson's trichrome staining (MTS) using Gomori's Trichome Stain Kit (38016SS2, Leica Biosystems). Histopathological assessments were conducted in a blinded fashion by scoring H&E-stained sections for relative percentages of the listed histopathological phenotypes. Tumor scores for orthotopic tumors were attributed on a scale from 1 (minor involvement) to 4 (extensive involvement), which evaluated on H&E sections of the entire pancreas the relative tumor involvement. Microscopic metastases were examined in H&E-stained tissue sections of the liver and lung. Positivity (one or more lesions in one tissue) was confirmed by CK19 staining. Images were obtained with a Leica DM 1000 LED microscope and an MC120 HD Microscope Camera with Las V4.4 Software (Leica).

[6] = tested on: intra-tumoral T cells; test: Flow cytometry characterization of tumor immune infiltration; type: in vivo; settings: gemcitabine treatment, mice with IL-6
Procedure: For the characterization of immune infiltration, tumors (from 2.5-month-old mice, treated with saline or gemcitabine for 2 weeks) were weighed, minced with gentleMACS Dissociator, and digested in 2 mL solution containing 1 mg/mL Liberase TL (Roche) and 0.2 mg/mL DNase I in DMEM media at 37° C. for 30 min. Spleens were weighed and filtered through a 100 μm mesh. Peripheral blood was collected with EDTA-tube, incubated with ACK lysis buffer for 5 min, and proceeded to mesh filtration. The tissue lysates were filtered through a 100 μm mesh before immunostaining. The subsequent single-cells suspension was stained with Fixable Viability Dye eFluor 780 (eBioscience) and antibodies specified in Table 2. The percentage positive cells were analyzed by FlowJo 10.1 and gated on CD45 positivity. Unstained, viability stain only, and single-stained beads (eBioscience) were used as compensation controls. Singlets were gated using forward scatter (FSC) height (FSC-H) and FSC area (FSC-A) event characteristics.

[7] = gemcitabine with loss of IL-6 from αSMA+ CAFs (KPPF;IL-6smaKO)
[8] = tumors of KPPF mice treated with gemcitabine
[9] = gemcitabine in mice with αSMA+ CAFs-specific loss of IL-6, vs controls

With Nc1ccn([C@@H]2O[C@H](CO)[C@@H](O)C2(F)F)c(=O)n1 [gemcitabine] the “gemcitabine-induced change in phosphorylated Akt” value [1, 7] was “significantly attenuated”, the “gemcitabine-induced change in phosphorylated ERK1/2” value [1, 7] was “significantly attenuated” and the “gemcitabine-induced change in phosphorylated Stat3” value [1, 7] was “significantly attenuated”. The “levels of phosphorylated Akt in cancer cells” value [1, 8] was “elevated levels”, the “levels of phosphorylated ERK1/2 in cancer cells” value [1, 8] was “elevated levels” and the “levels of phosphorylated Stat3 in cancer cells” value [1, 8] was “elevated levels”. The tumor burden [2] was “reduced tumor burden”, the histopathology ([2]; moribund endpoint) was “improved histopathology” and the “IL-6 transcript levels and positive cells” value [3] was “elevated”. The “αSMA transcript levels and αSMA+ CAFs” value [3] was “elevated”, the overall survival ([4]; KPPF mice, gemcitabine 40 mg/kg i.p. twice per week, vs untreated KPPF mice) was “no benefit” and the overall survival ([4]; KPPF;IL-6smaKO mice (αSMA+ CAFs-specific loss of IL-6) treated with gemcitabine, vs KPPF mice treated with gemcitabine) was “increase in overall survival; also recorded: overall increase in survival”. The overall survival ([4]; KPPF;IL-6−/− mice (absent IL-6) treated with gemcitabine, vs KPPF mice treated with gemcitabine) was “increased overall survival; also recorded: overall increase in survival”, the “cleaved caspase-3, indicative of apoptosis” value ([5]; gemcitabine concurrent with αSMA+ CAFs-specific loss of IL-6) was “further increased” and the cancer cell proliferation [5, 9] was “did not significantly impact”. The tumor collagen deposition [5, 9] was “did not significantly impact”, the tumor vasculature [5, 9] was “did not significantly impact” and the “cleaved caspase-3, indicative of apoptosis” value ([5]; mice treated with gemcitabine) was “elevated”. For the same molecule, the “intra-tumoral T cell frequencies” value [6] was “minimally impacted”.
